Here are results for one molecule from patent US10441597B2, “Ciclesonide for the treatment of airway disease in horses” (Boehringer Ingelheim Vetmedica GmbH, priority 2012, dated 2019).

For assay [1], the system named is RAO horses. Description: Moldy hay challenge study in RAO horses: clinical score (breathing effort score, weighted clinical score). Type of assay: in vivo, horse. The settings on record: Budesonide study, after 7 and 14 days. An excerpt:
(§1) The commercially available […]® is used in the study.

Assay [2] deals with RAO horses. Nature of the assay: Moldy hay challenge study in RAO horses: lung function variables (transpulmonary pressure, lung resistance, lung elastance). Type of assay: in vivo, horse.
Description: as §1

Consider `CCCC1O[C@@H]2C[C@H]3[C@@H]4CCC5=CC(=O)C=C[C@]5(C)[C@H]4[C@@H](O)C[C@]3(C)[C@]2(C(=O)CO)O1` (some centres unmarked) [budesonide], for which the “Clinical score compared to pretreatment values” in the assay with RAO horses [1] (all three budesonide groups (450/900/1800 μg/horse twice daily), p=0.002 to p<0.0001) is on record as “significantly reduced”. For the same molecule, in the assay with RAO horses [1] (budesonide 900 and 1800 μg/horse twice daily), the “Difference in clinical score versus dexamethasone group” value was “no significant difference”. Moreover, the “All lung function variables compared to pretreatment values” in the assay with RAO horses [2] (Budesonide study, budesonide 1800 μg/horse ex RESPIMAT twice daily inhaled, after 14 days, p≤0.0001) is reported as “significantly reduced”. Moreover, in the assay with RAO horses [2] (Budesonide study, budesonide 1800 μg/horse twice daily, after 7 or 14 days), the “Difference in lung function variables versus dexamethasone group” value is “no significant difference”. For the same molecule, the “Efficacy relative to dexamethasone measured in lung function variables and clinical score” value in the assay on RAO horses [2] (moldy hay challenge model, RESPIMAT inhaler with Equine Inhaler device, examples 1 and 3) is given as “comparable efficacy”.
